{"source": "patent US12161661B2", "about": "“Topical composition for destroying, in vivo, an external hyperplastic tissue, such as, but not limited to, a viral skin lesion, such as, but not limited to, a viral wart” (priority 2022, dated 2024)", "origin": "cited, not measured here", "key": {"warts [1]": {"test_system": "warts"}, "warts [2]": {"test_system": "warts", "conditions": "1 of 30"}, "warts [3]": {"test_system": "warts", "conditions": "oral, within 3 months, children aged 2.5-12.5 years; 16/20"}, "plantar warts [4]": {"test_system": "plantar warts", "conditions": "10% solution"}, "[5]": {"test_system": "warts of the hands and legs", "conditions": "5% cream once a day for 4 weeks, with occlusion"}, "plantar warts [6]": {"test_system": "plantar warts", "conditions": "12 weeks; 19/20"}, "periungual warts": {"test_system": "periungual warts", "conditions": "once in two weeks for 6 weeks, after fractional CO2 laser"}, "[7]": {"test_system": "warts on the hands and feet", "conditions": "plus light source PDL"}, "[8]": {"test_system": "warts on the palms and soles"}, "flat warts on the face [9]": {"test_system": "flat warts on the face", "conditions": "0.7% cantharidin, over 16 weeks on average"}, "warts [10]": {"test_system": "warts", "conditions": "80% solution every week for 6 weeks"}, "flat warts on the face [11]": {"test_system": "flat warts on the face", "conditions": "after 2 months, 0.5 mg/kg. per day"}, "warts [12]": {"test_system": "warts", "remark": "listed apart in the source"}, "warts [13]": {"test_system": "warts", "remark": "listed apart in the source"}, "warts [14]": {"test_system": "warts", "remark": "listed apart in the source"}, "[15]": {"conditions": "15-26% salicylic acid locally every day for 3 to 4 months"}}, "note": "Read-outs that look alike come from different tables or passages of the source."}
{"compound": "CC(C)Cn1cnc2c(N)nc3ccccc3c21", "note": "[Imiquimod]", "values": [{"measurement": "curing, patients", "setting": "warts [1]; 9.5 weeks, 50 patients of whom 19 had immunosuppression", "result": 56, "unit": "%"}, {"measurement": "patients with a 50% egression of warts", "setting": "warts [1]; twice daily for up to 24 weeks", "result": 76, "unit": "%"}]}
{"compound": "CC1=C(/C=C/C(C)=C/C=C/C(C)=C/C(=O)O)C(C)(C)CCC1", "note": "[tretinoin]", "values": [{"measurement": "effect achieved, patients", "setting": "warts [2]", "result": 3, "unit": "%"}]}
{"compound": "CCOC(=O)/C=C(C)/C=C/C=C(C)/C=C/c1c(C)cc(OC)c(C)c1C", "note": "[etretinate]", "values": [{"measurement": "effect observed", "setting": "warts [3]", "result": 80, "unit": "%"}]}
{"compound": "O=CCCCC=O", "note": "[Glutaraldehyde]", "values": [{"measurement": "effectiveness", "setting": "resistant warts; 25 patients", "result": 72, "unit": "%"}, {"measurement": "tolerability", "setting": "resistant warts; human, in vivo", "result": "well tolerated"}, {"measurement": "efficiency compared with salicylic acid", "setting": "plantar warts [4]", "result": "equivalent to the solution of salicylic acid"}]}
{"compound": "O=c1[nH]cc(F)c(=O)[nH]1", "note": "[5-FU, Ftoruracil]", "values": [{"measurement": "warts cleared at the end of treatment", "setting": "[5]", "result": 60, "unit": "%"}, {"measurement": "complete cure, patients", "setting": "plantar warts [6]", "result": 95, "unit": "%"}]}
{"compound": "COC(=O)CCC(=O)CN", "note": "[MAL-PDT, methyl5-aminolaevuninic acid]", "values": [{"measurement": "cure rate", "setting": "periungual warts", "result": 90, "unit": "%"}, {"measurement": "resolution of treated warts", "setting": "[7]", "result": 53, "unit": "%"}]}
{"compound": "O=c1c(-c2ccccc2)c1-c1ccccc1", "note": "[DPC, Diphenylcyclopropenone]", "values": [{"measurement": "complete disappearance of warts", "setting": "[8]; 48 patients treated with DPC", "result": 88, "unit": "%"}, {"measurement": "average processing time", "setting": "[8]; human, in vivo", "result": 5, "unit": "months"}, {"measurement": "recurrence", "setting": "[8]; within 2 years", "result": "no recurrence was observed"}]}
{"compound": "bleomycin", "values": [{"measurement": "cure rate", "setting": "wart; 0.1-1 mg injected into the wart, compared with cryotherapy", "result": "92-97%"}, {"measurement": "pain after injection, duration", "setting": "wart; main side effect", "result": "up to 48 hours"}]}
{"compound": "C[C@@]12C(=O)OC(=O)[C@]1(C)[C@H]1CC[C@@H]2O1", "note": "[cantharidin]", "values": [{"measurement": "cure", "setting": "flat warts on the face [9]", "result": "cure in all 15 patients"}]}
{"compound": "Oc1ccccc1", "note": "[phenol]", "values": [{"measurement": "cure rate", "setting": "warts [10]", "result": 83, "unit": "%"}]}
{"compound": "CC1=C(/C=C/C(C)=C/C=C/C(C)=C\\C(=O)O)C(C)(C)CCC1", "note": "[isotretinoin]", "values": [{"measurement": "effect", "setting": "flat warts on the face [11]", "result": 73, "unit": "%"}]}
{"compound": "O=C(O)c1ccccc1O", "note": "[salicylic acid]", "values": [{"measurement": "average cure rate", "setting": "warts [12]; [15]", "result": 49, "unit": "%"}, {"measurement": "cure rate, range", "setting": "warts [12]; [15]", "result": "0-69%"}, {"measurement": "effect of the salicylic acid (qualitative studies)", "setting": "warts [12]; in vivo", "result": "low"}]}
{"compound": "CC(=O)C(=O)O", "note": "[pyruvic acid]", "values": [{"measurement": "recovery, patients", "setting": "warts [13]; in combination with 0.5% 5-FU", "result": 80, "unit": "%"}, {"measurement": "recovery, patients", "setting": "warts [13]; pyruvic acid alone", "result": 70, "unit": "%"}]}
{"compound": "Nc1ccn(C[C@@H](CO)OCP(=O)(O)O)c(=O)n1", "note": "[Cidofovir]", "values": [{"measurement": "resolution of warts", "setting": "warts [14]; average of 3.2 injections per course", "result": 98, "unit": "%"}, {"measurement": "side effects", "setting": "warts [14]; in vivo", "result": "nephrotoxicity, neutropenia, and metabolic acidosis"}]}
